Reference: paper PMC12472947 (Pharmaceuticals, 2025)
Entries after “also recorded” stand apart in the source; their conditions may differ. Marks after values point to notes of the source that are not given here.

Legend:
[1] = system: H2O2-damaged SH-SY5Y cells; assay: In vitro neuroprotection against H2O2 in SH-SY5Y (MTT); conditions: for viability at 12.5 µM: Homo sapiens, SH-SY5Y, read-out: Cell viability (% of control)
Protocol: For the neuroprotection assay, the cells previously cultured (Section 3.4.1) were seeded in 96-well plates at a density of 5 × 10^4 cells/well in a volume of 200 µL. The plates were incubated at 37 °C containing 5% CO2 for 24 h. After 24 h, the medium was replaced with the test solutions. […] Finally, the test solutions were removed, the cells were washed with PBS pH 7.4, and the H2O2 solution was added and maintained in contact with the cells for 24 h. After 24 h exposure, the neuroprotective capacity was assessed through cell viability using the MTT assay protocol previously described in Section 3.4.3 [52, 53].

[2] = system: SH-SY5Y neuroblastoma cells; assay: Cytotoxicity (neurotoxicity) MTT assay in SH-SY5Y; type: cell-based; conditions: up to 50 µM
Protocol: (§1) The immortalized human neuroblastoma cell line (SH-SY5Y–ATCC: CRL-2226; BCRJ:0223) was used to evaluate cytotoxicity. The cell line was cultured in Dulbecco’s Modified Eagle’s Medium and F12 in a 1:1 ratio (DMEM:F12; Sigma-Aldrich code 0697, Brazil) supplemented with 10% fetal bovine serum (FBS; Sigma-Aldrich code F2442, Brazil) and 1% streptomycin/penicillin (10,000 U/mL and 10,000 μg/mL, respectively; Nova Biotecnologia code BR30110-01, Cotia, SP, Brazil) and incubated at 37 °C with 5% CO2. The culture medium was replaced every 48 h, until the cells reached semi-confluence (≥70%). Cell passage was carried out with the aid of trypsin-EDTA/0.25% solution (Nova Biotecnologia, Brazil) and divided between 5 or 8 mL culture volumes depending on the respective bottles (25 or 75 cm^2) used.
(§2) The in vitro cytotoxicity assay evaluated cell viability using the [3-(4,5-dimethylthiazol-2yl)-2,5-diphenyl tetrazolium] bromide (MTT) reduction assay. Cells were seeded at an initial density of 5.0 × 10^4 cells/well in 96-well plates in a volume of 200 µL. […] In the next step, the culture medium was replaced by the sample solution previously described (Section 3.4.2). After 24 h exposure, the medium was replaced with 100 μL of MTT in phosphate-buffer saline (PBS), pH 7.4, at a concentration of 0.5 mg.mL^−1/well and the plates were incubated for an additional 3 h. Then, the MTT solution was removed, and 100 μL of DMSO was added to solubilize the formazan crystals. The cell viability was measured by absorbance at 562 nm using a Microplate Absorbance Reader (Kasuaki, Brazil). All concentrations tested were evaluated in nine replicates (n = 9). The variation in results was observed using ANOVA followed by Tukey’s test for multiple comparisons through GraphPad Prism v5^TM with a significance level of p < 0.05.

[3] = Cytotoxicity (neurotoxicity) MTT assay in SH-SY5Y; type: cell-based; conditions: human, SH-SY5Y neuroblastoma cells; for viability at 24 h, 12.5 µM / viability at 24 h, 25 µM / viability at 24 h, 50 µM: MTT, read-out: Cell viability (% of control); for viability at 24 h: up to 25 μM, read-out: cell viability
Protocol: as §1, §2

human AChE [hAChE] = human AChE [hAChE] (Homo sapiens, UniProt P22303); assay: biochemical; conditions: for IC50: Human AChE, Ellman method, read-out: IC50(nM) ± SD AChE (hAChE) (converted); for SI: SI = EqBChE IC50/hAChE
[4] = biological target: T1, equine serum BChE [EqBChE] (Equus caballus, UniProt P81908); assay: biochemical; conditions: Ellman method, read-out: IC50(nM) ± SD BChE (EqBChE)
T1 construct: equine serum BChE [EqBChE]; from tissue; host or cells: equine serum

hMAO-B = biological target: T2, hMAO-B (Homo sapiens, UniProt P27338); assay: biochemical; type: biochemical
T2 construct: purchased Sigma-Aldrich, Gillingham, UK
T2 sequence (P27338 1-520): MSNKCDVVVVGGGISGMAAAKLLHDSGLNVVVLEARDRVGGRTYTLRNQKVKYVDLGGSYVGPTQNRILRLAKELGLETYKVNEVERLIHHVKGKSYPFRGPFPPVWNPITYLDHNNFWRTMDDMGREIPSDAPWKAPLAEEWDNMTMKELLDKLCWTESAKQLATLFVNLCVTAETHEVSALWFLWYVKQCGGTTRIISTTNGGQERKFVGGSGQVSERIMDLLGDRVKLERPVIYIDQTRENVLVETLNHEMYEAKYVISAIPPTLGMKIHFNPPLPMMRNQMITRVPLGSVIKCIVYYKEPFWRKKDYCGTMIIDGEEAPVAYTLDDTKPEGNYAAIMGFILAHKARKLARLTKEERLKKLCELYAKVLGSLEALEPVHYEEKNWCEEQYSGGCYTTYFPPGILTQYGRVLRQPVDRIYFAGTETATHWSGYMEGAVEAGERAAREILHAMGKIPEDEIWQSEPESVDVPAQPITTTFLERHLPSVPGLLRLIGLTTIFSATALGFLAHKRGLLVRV
Protocol: The activity of human recombinant membrane-bound monoamine oxidase isoforms A and B (MAO-A/B) (Sigma-Aldrich, Gillingham, UK) in 50 mM potassium phosphate buffer (pH 7.5) was determined by measuring hydrogen peroxide production coupled to the fluorescent dye Amplex Red (Sigma-Aldrich, UK) at a final concentration of 50 μM, in the presence of horseradish peroxidase (HRP, 2.5 U/mL). This coupling reaction generates the fluorescent product resorufin, which was quantified at 30 °C using a fluorescence plate reader.
Reactions were initiated by adding the substrate and dye after a 30 min preincubation of the inhibitor with the enzyme. Data were analyzed using a three-parameter equation in GraphPad Prism 7.0 (San Diego, USA). Each reported value represents the mean of at least two independent determinations.

[5] = biological target: electric eel AChE [EeAChE] (Electrophorus electricus, UniProt O42275); assay: biochemical; type: biochemical; conditions: for IC50: Electric eel AChE, Ellman method, read-out: IC50(nM) ± SD AChE (EeAChE); for SI: Selectivity Index = EqBChE IC50/EeAChE IC50
Sequence of electric eel AChE [EeAChE] (O42275 24-633): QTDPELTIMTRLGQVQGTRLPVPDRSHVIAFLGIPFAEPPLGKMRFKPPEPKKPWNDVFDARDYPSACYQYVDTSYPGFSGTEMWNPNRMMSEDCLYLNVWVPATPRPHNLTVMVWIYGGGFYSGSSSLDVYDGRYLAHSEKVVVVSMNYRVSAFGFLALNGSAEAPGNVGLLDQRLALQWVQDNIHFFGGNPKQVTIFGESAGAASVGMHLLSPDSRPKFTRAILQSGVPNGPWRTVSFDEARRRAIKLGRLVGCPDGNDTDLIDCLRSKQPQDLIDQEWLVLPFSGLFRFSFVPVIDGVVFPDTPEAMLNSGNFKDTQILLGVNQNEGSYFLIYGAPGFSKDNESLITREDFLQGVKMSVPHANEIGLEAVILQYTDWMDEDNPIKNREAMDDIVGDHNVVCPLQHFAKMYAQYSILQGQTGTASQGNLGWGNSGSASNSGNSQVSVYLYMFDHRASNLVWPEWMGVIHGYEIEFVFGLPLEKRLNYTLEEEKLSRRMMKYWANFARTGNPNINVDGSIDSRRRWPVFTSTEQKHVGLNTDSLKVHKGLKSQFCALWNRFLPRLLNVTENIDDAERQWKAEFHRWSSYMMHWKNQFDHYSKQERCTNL

Sequence of human AChE [hAChE] (P22303 32-614): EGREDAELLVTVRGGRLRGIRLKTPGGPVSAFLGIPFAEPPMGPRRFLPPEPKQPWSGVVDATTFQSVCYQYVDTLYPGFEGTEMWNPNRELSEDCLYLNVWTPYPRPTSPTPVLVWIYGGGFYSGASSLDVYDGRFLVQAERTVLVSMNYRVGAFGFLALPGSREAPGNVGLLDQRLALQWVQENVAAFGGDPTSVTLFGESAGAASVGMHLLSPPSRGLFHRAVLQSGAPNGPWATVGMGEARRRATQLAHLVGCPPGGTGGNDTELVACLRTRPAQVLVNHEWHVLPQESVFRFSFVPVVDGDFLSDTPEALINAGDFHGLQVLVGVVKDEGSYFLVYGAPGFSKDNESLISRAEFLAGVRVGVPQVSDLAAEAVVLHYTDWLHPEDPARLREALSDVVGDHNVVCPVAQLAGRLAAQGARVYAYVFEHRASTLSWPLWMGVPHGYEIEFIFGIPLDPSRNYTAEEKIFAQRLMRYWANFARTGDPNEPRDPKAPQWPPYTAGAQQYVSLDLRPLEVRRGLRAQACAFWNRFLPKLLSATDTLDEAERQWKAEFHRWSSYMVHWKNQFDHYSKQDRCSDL
T1 sequence (P81908 whole entry): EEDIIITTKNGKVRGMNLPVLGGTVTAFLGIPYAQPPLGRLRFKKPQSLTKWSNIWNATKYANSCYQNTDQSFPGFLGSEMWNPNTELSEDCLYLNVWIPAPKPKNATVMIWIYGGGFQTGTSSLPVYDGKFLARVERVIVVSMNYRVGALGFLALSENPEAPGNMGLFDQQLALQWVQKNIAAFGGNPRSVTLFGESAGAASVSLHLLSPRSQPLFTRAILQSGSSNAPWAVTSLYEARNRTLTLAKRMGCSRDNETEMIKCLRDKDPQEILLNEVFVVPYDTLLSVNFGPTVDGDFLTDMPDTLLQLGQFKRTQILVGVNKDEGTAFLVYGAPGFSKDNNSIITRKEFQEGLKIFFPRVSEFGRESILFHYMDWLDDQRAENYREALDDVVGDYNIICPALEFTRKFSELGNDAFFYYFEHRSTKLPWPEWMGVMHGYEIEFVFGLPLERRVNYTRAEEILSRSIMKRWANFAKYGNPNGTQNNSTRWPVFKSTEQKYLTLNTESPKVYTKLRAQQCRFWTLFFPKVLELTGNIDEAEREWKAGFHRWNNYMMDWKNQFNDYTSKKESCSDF

SMILES	neuroprotection against H2O2-induced oxidative stress ([1]; 12.5 µM)	viability at 12.5 µM [1]	neurotoxicity [2]	viability at 24 h, 12.5 µM [3]	viability at 24 h, 25 µM [3]	viability at 24 h, 50 µM [3]	viability at 24 h [3]	IC50 (human AChE [hAChE])	SI (human AChE [hAChE])	IC50 [4]	inhibition at 1 µM (hMAO-B; test concentration of 1 µM, read-out: Percentage of MAO-B inhibition ± SEM)	IC50 [5]	SI [5]	IC50 (hMAO-B)	MAO-B/A selectivity ratio (hMAO-B)
O=c1oc2cc(OCCN3CCCCC3)ccc2cc1-c1cn(Cc2ccccc2)nn1 [Compound 1h, 3-(1-Benzyl-1H-1,2,3-triazol-4-yl)-7-(2-(piperidin-1-yl)ethoxy)-2H-chromen-2-one]	neuroprotective effects	88%	non-neurotoxic; also recorded: no neurotoxicity	121%	121%	111%	≥ 70%	115 nM	33	3790 ± 400 nM	11.3 ± 1.9%	6.03 ± 0.62 nM	632		
O=c1oc2cc(OCCCN3CCCCC3)ccc2cc1-c1cn(Cc2ccccc2)nn1 [Compound 1q, 3-(1-Benzyl-1H-1,2,3-triazol-4-yl)-7-(3-(piperidin-1-yl)propoxy)-2H-chromen-2-one]		68%	non-neurotoxic	99%	105%	84%	≥ 70%	1410 nM	~2 ^e,f	3560 ± 190 nM		1950 ± 86 nM	~2 ^e,f	1690 nM	greater than 18 fold
